Experimental data as given in ChEMBL document CHEMBL4033734, “Synthesis of 3- and 29-substituted celastrol derivatives and structure-activity relationship studies of their cytotoxic activities” (Bioorg Med Chem Lett, 2017).

Assays:
HeLa = test: Cytotoxic activity against human HeLa cells incubated for 48 hrs by MTT assay; assay type: functional, cell-based
SGC-7901 = test: Cytotoxic activity against human SGC7901 cells incubated for 48 hrs by MTT assay; assay type: functional, cell-based; details: SGC-7901, 48 h
A549 [1] = test: Cytotoxic activity against human A549 cells incubated for 48 hrs by MTT assay; assay type: functional, cell-based; details: A549, 48 h
HepG2 = test: Cytotoxic activity against human HepG2 cells incubated for 48 hrs by MTT assay; assay type: functional, cell-based; details: HepG2, 48 h
Bel-7402 = test: Cytotoxic activity against human Bel7402 cells incubated for 48 hrs by MTT assay; assay type: functional, cell-based; details: Bel-7402, 48 h
A549 [2] = test: Antitumor activity against human A549 cells xenografted in nude mouse assessed as tumor growth inhibition at 12 mg/kg, ig dosed every day; assay type: functional; details: A549, po, read-out: TGI
Mus musculus [3] = test: Toxicity in nude mouse xenografted with human A549 cells assessed as change in body weight at 12 mg/kg, ig dosed every day (reference value: 26.5 g); assay type: organism-based; details: in vivo, po
Mus musculus [4] = test: Toxicity in nude mouse xenografted with human A549 cells assessed as induction of mouse fatality at 12 mg/kg, ig dosed every day; assay type: organism-based; details: in vivo, po
A549 [5] = test: Antitumor activity against human A549 cells xenografted in nude mouse assessed as relative tumor volume at 12 mg/kg, ig dosed every day relative to initial tumor volume; assay type: functional
Mus musculus [6] = test: Toxicity in ip dosed nude mouse assessed as induction of mouse fatality; assay type: organism-based; details: in vivo
Mus musculus [7] = test: Toxicity in nude mouse xenografted with human A549 cells assessed as induction of mouse fatality at 3 mg/kg, ig dosed every day; assay type: organism-based; details: in vivo, po
A549 [8] = test: Antitumor activity against human A549 cells xenografted in nude mouse assessed as relative tumor volume at 3 mg/kg, ig dosed every day relative to initial tumor volume; assay type: functional
Mus musculus [9] = test: Toxicity in nude mouse xenografted with human A549 cells assessed as change in body weight at 3 mg/kg, ig dosed every day (reference value: 26.8 g); assay type: organism-based; details: in vivo, po
Mus musculus [10] = test: Toxicity in nude mouse xenografted with human A549 cells assessed as change in body weight at 6 mg/kg, ig dosed every day (reference value: 25.9 g); assay type: organism-based; details: in vivo, po
A549 [11] = test: Antitumor activity against human A549 cells xenografted in nude mouse assessed as tumor growth inhibition at 6 mg/kg, ig dosed every day; assay type: functional; details: A549, po, read-out: TGI
A549 [12] = test: Antitumor activity against human A549 cells xenografted in nude mouse assessed as tumor growth inhibition at 3 to 12 mg/kg, ig dosed every day; assay type: functional, organism-based
A549 [13] = test: Antitumor activity against human A549 cells xenografted in nude mouse assessed as relative tumor volume at 6 mg/kg, ig dosed every day relative to initial tumor volume; assay type: functional
Mus musculus [14] = test: Toxicity in nude mouse xenografted with human A549 cells assessed as change in body weight at 12 mg/kg, ig dosed every day (reference value: 25.8 g); assay type: organism-based; details: in vivo, po
Mus musculus [15] = test: Toxicity in nude mouse xenografted with human A549 cells assessed as induction of mouse fatality at 6 mg/kg, ig dosed every day; assay type: organism-based; details: in vivo, po
A549 [16] = test: Antitumor activity against human A549 cells xenografted in nude mouse assessed as tumor growth inhibition at 3 mg/kg, ig dosed every day; assay type: functional; details: A549, po, read-out: TGI

## CC1=C(OC(=O)N2CCN(Cc3ccccc3)CC2)C(=O)C=C2C1=CC=C1[C@@]2(C)CC[C@@]2(C)[C@@H]3C[C@](C)(C(=O)OCc4ccccc4)CC[C@]3(C)CC[C@]12C
HeLa
  IC50: 18000 nM
SGC-7901
  IC50: 11700 nM
A549 [1]
  IC50: 8850 nM
HepG2
  IC50: 9900 nM
Bel-7402
  IC50: 5170 nM

## CC1=C(O)C(=O)C=C2C1=CC=C1[C@@]2(C)CC[C@@]2(C)[C@@H]3C[C@](C)(C(=O)OCc4ccc(C)cc4)CC[C@]3(C)CC[C@]12C
HeLa
  IC50: 1050 nM
SGC-7901
  IC50: 700 nM
A549 [1]
  IC50: 3120 nM
HepG2
  IC50: 430 nM
Bel-7402
  IC50: 630 nM

## CC1=C(O)C(=O)C=C2C1=CC=C1[C@@]2(C)CC[C@@]2(C)[C@@H]3C[C@](C)(C(=O)OC(C)C)CC[C@]3(C)CC[C@]12C
HeLa
  IC50: 1750 nM
SGC-7901
  IC50: 470 nM
A549 [1]
  IC50: 3410 nM
HepG2
  IC50: 320 nM
Bel-7402
  IC50: 430 nM

## CC(=O)N1CCN(C(=O)OC2=C(C)C3=CC=C4[C@@](C)(CC[C@@]5(C)[C@@H]6C[C@](C)(C(=O)OCc7ccccc7)CC[C@]6(C)CC[C@]45C)C3=CC2=O)CC1
HeLa
  IC50: 1350 nM
SGC-7901
  IC50: 3640 nM
A549 [1]
  IC50: 7200 nM
HepG2
  IC50: 5790 nM
Bel-7402
  IC50: 4230 nM

## CCC(C)OC(=O)[C@]1(C)CC[C@]2(C)CC[C@]3(C)C4=CC=C5C(=CC(=O)C(O)=C5C)[C@]4(C)CC[C@@]3(C)[C@@H]2C1 (stereo partly drawn)
HeLa
  IC50: 360 nM
SGC-7901
  IC50: 360 nM
A549 [1]
  IC50: 1930 nM
HepG2
  IC50: 390 nM
Bel-7402
  IC50: 590 nM

## CC1=C(OC(=O)N2CCCCC2)C(=O)C=C2C1=CC=C1[C@@]2(C)CC[C@@]2(C)[C@@H]3C[C@](C)(C(=O)OCc4ccccc4)CC[C@]3(C)CC[C@]12C
HeLa
  IC50: 2820 nM
SGC-7901
  IC50: 3040 nM
A549 [1]
  IC50: 12100 nM
HepG2
  IC50: 7430 nM
Bel-7402
  IC50: 3220 nM

## CCN1CCN(C(=O)OC2=C(C)C3=CC=C4[C@@](C)(CC[C@@]5(C)[C@@H]6C[C@](C)(C(=O)OCc7ccccc7)CC[C@]6(C)CC[C@]45C)C3=CC2=O)CC1
HeLa
  IC50: 1590 nM
SGC-7901
  IC50: 2880 nM
A549 [1]
  IC50: 5910 nM
HepG2
  IC50: 4610 nM
Bel-7402
  IC50: 2440 nM

## CC1=C(OC(=O)N2CCOCC2)C(=O)C=C2C1=CC=C1[C@@]2(C)CC[C@@]2(C)[C@@H]3C[C@](C)(C(=O)OCc4ccccc4)CC[C@]3(C)CC[C@]12C
HeLa
  IC50: 1550 nM
SGC-7901
  IC50: 1780 nM
A549 [1]
  IC50: 9350 nM
HepG2
  IC50: 1360 nM
Bel-7402
  IC50: 1560 nM

## CC1=C(O)C(=O)C=C2C1=CC=C1[C@@]2(C)CC[C@@]2(C)[C@@H]3C[C@](C)(C(=O)OCc4ccc(I)cc4)CC[C@]3(C)CC[C@]12C
HeLa
  IC50: 1320 nM
SGC-7901
  IC50: 810 nM
A549 [1]
  IC50: 7700 nM
HepG2
  IC50: 1950 nM
Bel-7402
  IC50: 860 nM

## CC1=C(O)C(=O)C=C2C1=CC=C1[C@@]2(C)CC[C@@]2(C)[C@@H]3C[C@](C)(C(=O)O)CC[C@]3(C)CC[C@]12C [CELASTROL]
A549 [2]
  inhibition in vivo at 12 mg/kg: 62%
Mus musculus [3]
  Activity: 25.5 g
Mus musculus [4]
  Activity: Toxic
HeLa
  IC50: 840 nM
SGC-7901
  IC50: 870 nM
A549 [1]
  IC50: 2120 nM
HepG2
  IC50: 580 nM
A549 [5]
  fold change (FC): 0.84
Mus musculus [6]
  Activity: Toxic
Bel-7402
  IC50: 440 nM

## CC1=C(OC(=O)N2CCN(C)CC2)C(=O)C=C2C1=CC=C1[C@@]2(C)CC[C@@]2(C)[C@@H]3C[C@](C)(C(=O)OCc4ccccc4)CC[C@]3(C)CC[C@]12C
Mus musculus [7]
  Activity: Non-Toxic
A549 [2]
  inhibition in vivo at 12 mg/kg: 71%
Mus musculus [4]
  Activity: Non-Toxic
A549 [8]
  fold change (FC): 0.76
Mus musculus [9]
  Activity: 26.5 g
Mus musculus [10]
  Activity: 27 g
A549 [11]
  inhibition in vivo at 6 mg/kg: 57.5%
HeLa
  IC50: 2310 nM
A549 [12]
  TGI: Dose-dependent effect
SGC-7901
  IC50: 1280 nM
A549 [1]
  IC50: 5180 nM
HepG2
  IC50: 2610 nM
A549 [13]
  fold change (FC): 0.63
A549 [5]
  fold change (FC): 0.55
Mus musculus [14]
  Activity: 26.9 g
Mus musculus [15]
  Activity: Non-Toxic
Bel-7402
  IC50: 1020 nM
A549 [16]
  inhibition in vivo at 3 mg/kg: 46.1%

## CCOC(=O)COC(=O)[C@]1(C)CC[C@]2(C)CC[C@]3(C)C4=CC=C5C(=CC(=O)C(O)=C5C)[C@]4(C)CC[C@@]3(C)[C@@H]2C1
HeLa
  IC50: 610 nM
SGC-7901
  IC50: 670 nM
A549 [1]
  IC50: 3890 nM
HepG2
  IC50: 760 nM
Bel-7402
  IC50: 300 nM

## CC1=C(O)C(=O)C=C2C1=CC=C1[C@@]2(C)CC[C@@]2(C)[C@@H]3C[C@](C)(C(=O)OCC(C)C)CC[C@]3(C)CC[C@]12C
HeLa
  IC50: 410 nM
SGC-7901
  IC50: 240 nM
A549 [1]
  IC50: 1070 nM
HepG2
  IC50: 340 nM
Bel-7402
  IC50: 530 nM
